Measured values reported in US10144746B2 (GLOBAL BLOOD THERAPEUTICS, INC., priority 2015, dated 2018).

molecular target: Human plasma kallikrein (Homo sapiens (Human), UniProt P03952); assay: In vitro plasma kallikrein inhibition assay (chromogenic substrate D-Pro-Phe-Arg-pNa, absorbance at 405 nm, IC50 determination); type: biochemical; settings: not given
Sequence (P03952 391-638): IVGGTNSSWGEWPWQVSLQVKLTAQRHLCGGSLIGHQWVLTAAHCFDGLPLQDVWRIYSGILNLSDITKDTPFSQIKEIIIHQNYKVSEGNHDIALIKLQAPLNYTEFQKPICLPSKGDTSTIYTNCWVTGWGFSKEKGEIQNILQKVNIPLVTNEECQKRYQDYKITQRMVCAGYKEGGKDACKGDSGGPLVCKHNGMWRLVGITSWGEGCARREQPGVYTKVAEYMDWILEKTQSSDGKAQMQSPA
Sequence (P03952 20-390 partner): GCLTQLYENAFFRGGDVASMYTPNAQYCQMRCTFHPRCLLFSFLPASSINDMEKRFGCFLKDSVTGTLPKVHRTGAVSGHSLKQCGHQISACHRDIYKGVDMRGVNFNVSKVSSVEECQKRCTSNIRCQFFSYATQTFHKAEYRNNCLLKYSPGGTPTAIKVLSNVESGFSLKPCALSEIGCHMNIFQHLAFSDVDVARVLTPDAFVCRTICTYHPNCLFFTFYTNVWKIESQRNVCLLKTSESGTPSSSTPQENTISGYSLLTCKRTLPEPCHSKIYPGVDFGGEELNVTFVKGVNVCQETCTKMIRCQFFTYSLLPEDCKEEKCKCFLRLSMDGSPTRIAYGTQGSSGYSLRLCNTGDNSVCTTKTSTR

For `Cc1cc(N)nc(C)c1CNC(=O)c1ccc2c(c1)C1OC2c2cc(N3CCN(C(=O)c4ccccc4)CC3)ccc21` (stereo not drawn), which “KLKB1 pIC50” value is on record?
Its value is 6.55.

`Cc1cc(N)nc(C)c1CNC(=O)c1ccc2c(c1)[C@H]1O[C@@H]2c2ccc(-c3ccc(F)cc3F)cc21` was tested. Which “KLKB1 pIC50” value did it give?
The value was 4.44.

How did the “KLKB1 pIC50” value turn out when `COc1cc(N)nc(C)c1CNC(=O)c1ccc2c(c1)C1OC2c2ccc(-c3ccc(F)cc3F)cc21` (stereo not drawn) [Example 80] was run?
The value was 7.57.

With “(±)-N-[(6-amino-2,4-dimethyl- pyridin-3-yl)methyl]-12-(2,4- difluorophenyl)-11-ethenyl-15- oxatetracyclo[6.6.1.0^2,^7.0^9,1^4] pentadeca-2,4,6,9,11,13- hexaene-4-carboxamide and (±)-N-[(6-amino-2,4- dimethylpyridin-3-yl)methyl]- 11-(2,4-difluorophenyl)-12- ethenyl-15-oxatetraoyclo [6.6.1.0^2,^7.0^9,1^4]pentadeca- 2,4,6,9,11,13-hexaene-4- carboxamide [Example 322]” as the compound, how does the “KLKB1 pIC50” value read?
Its value is 8.57.

same assay, conditions: read-out: KLKB1 pIC50 (converted)

Which IC50 does the source give for `COc1ccc(-n2cnnn2)c(CNC(=O)c2ccc3c(c2)C2OC3c3ccc(-c4ccc(F)cc4F)cc32)c1` (racemic) [Example 127, (±)-12-(2,4-difluorophenyl)-N-{[5-methoxy-2-(1H-1,2,3,4-tetrazol-1-yl)phenyl]methyl}-15-oxatetracyclo[6.6.1.0^2,^7.0^9,1^4] pentadeca-2,4,6,9,11,13-hexaene-4-carboxamide] here?
Its IC50 is 977 nM.

Which IC50 does the source give for `Cc1cnn(Cc2ccc3c(c2)C2OC3c3ccc(C(=O)NCc4c(F)cc5c(c4C)CNC5)cc32)c1` (racemic) [Example 153, (±)-N-[(6-fluoro-4-methyl-2,3-dihydro-1H-isoindol-5-yl)methyl]-12-[(4-methyl-1H-pyrazol-1-yl)methyl]-15-oxatetracyclo[6.6.1.0^2,^7.0^9,1^4]-pentadeca-2,4,6,9,11,13-hexaene-4-carboxamide] here?
Its IC50 is 204 nM.

For `Cc1cc(N)nc(C)c1CNC(=O)c1ccc2c(c1)[C@@H]1O[C@H]2c2ccc(-c3ccc(Cl)cc3C#N)cc21` (single isomer, unassigned) [Example 139], which IC50 is on record?
The IC50 was 3.02 nM.

Which IC50 does the source give for `Cc1ccc(-c2ccc3c(c2)[C@H]2O[C@@H]3c3ccc(C(=O)NCc4ccc(C(=N)N)cc4)cc32)o1` (single isomer, unassigned) [Example 223] here?
The IC50 was 33.9 nM.

Which IC50 does the source give for `Cc1cc(CN)cc(C)c1CNC(=O)c1ccc2c(c1)C1OC2c2ccc(-c3ccc(Cl)c(F)c3F)cc21` (racemic) [Example 125, (±)-N-{[4-(aminomethy])-2,6-dimethylphenyl]-methyl}-12-(4-chloro-2,3-difluorophenyl)-15-oxatetracyclo-[6.6.1.0^2,^7.0^9,1^4]pentadeca-2,4,6,9,11,13-hexaene-4-carboxamide] here?
Its IC50 is 661 nM.

For `N=C(N)c1ccc(CNC(=O)c2ccc3c(c2)[C@@H]2O[C@H]3c3ccc(-n4cccn4)cc32)cc1` (single isomer, unassigned) [Example 305], which IC50 is on record?
Its IC50 is 8.91 nM.

Which IC50 does the source give for `Cc1cc(C(=N)N)cc(C)c1CNC(=O)c1ccc2c(c1)[C@@H]1O[C@H]2c2ccc(C3CC3)cc21` (single isomer, unassigned) [Example 331] here?
Its IC50 is 1 nM.

`Cc1cc(N)nc(C)c1CNC(=O)c1ccc2c(c1)C1OC2c2ccccc21` (racemic) [Example 1] was tested. Which IC50 did it give?
The IC50 was 6310 nM.

How did the IC50 turn out when `N=C(N)c1ccc(CNC(=O)c2ccc3c(c2)[C@@H]2O[C@H]3c3ccc(N4CCS(=O)(=O)CC4)cc32)cc1` (single isomer, unassigned) [Example 337] was run?
The IC50 was 26.9 nM.

With `Cc1cc(N)nc(C)c1CNC(=O)c1ccc2c(c1)C1OC2c2cc(-c3ccccc3)c(-c3ccccc3)cc21` (racemic) [Example 314, (±)-N-[(6-amino-2,4-dimethyl-pyridin-3-yl)-methyl]-11,12-diphenyl-15-oxatetracyclo-[6.6.1.0^2,^7.0^9,1^4]pentadeca-2,4,6,9,11,13-hexaene-4-carboxamide] as the compound, how does the IC50 read?
Its IC50 is 871 nM.

For `Cc1cc(N)nc(C)c1CNC(=O)c1ccc2c(c1)C1OC2c2cc(C#N)c(C#N)cc21` (racemic) [Example 326, (±)-N-((6-amino-2,4-dimethylpyridin-3-yl)methyl]-11,12-dicyano-15-oxatetracyclo-[6.6.1.0^2,^7.0^9,1^4]pentadeca-2,4,6,9,11,13-hexaene-4-carboxamide], which IC50 is on record?
The IC50 was 851 nM.

How did the IC50 turn out when `CC(F)(F)c1ccc2c(c1)[C@H]1O[C@@H]2c2ccc(C(=O)NCc3ccc(C(=N)N)cc3)cc21` (single isomer, unassigned) [Example 281] was run?
The IC50 was 10 nM.

How did the IC50 turn out when `COc1cc(N)nc(C)c1CNC(=O)c1ccc2c(c1)C1OC2c2ccc(Cn3cccn3)cc21` (racemic) [Example 117, (±)-N-[(6-amino-4-methoxy-2-methylpyridin-3-yl)methyl]-12-[(1H-pyrazol-1-yl)methyl]-15-oxatetracyclo[6.6.1.0^2,^7.0^9,1^4] pentadeca-2,4,6,9,11,13-hexaene-4-carboxamide] was run?
Its IC50 is 3.98 nM.

How did the IC50 turn out when `N=C(N)c1cc(F)c(CNC(=O)c2ccc3c(c2)[C@@H]2O[C@H]3c3ccc(-c4nccs4)cc32)c(F)c1` (single isomer, unassigned) [Example 275] was run?
Its IC50 is 2 nM.

For `Cc1cc(N)nc(C)c1CNC(=O)c1ccc2c(c1)[C@@H]1O[C@H]2c2ccc(Oc3cccc(F)c3)cc21` (single isomer, unassigned) [Example 191], which IC50 is on record?
The IC50 was 105 nM.

`Cc1ccc(-c2ccc3c(c2)C2OC3c3ccc(C(=O)NCc4c(C)cc5c(c4C)CNC5)cc32)c(C#N)c1` (racemic) [Example 137, (±)-12-(2-cyano-4-methylphenyl)-N-[(4,6-dimethyl-2,3-dihydro-1H-isoindol-5-yl)methyl]-15-oxatetracyclo[6.6.1.0^2,^7.0^9,1^4] pentadeca-2,4,6,9,11,13-hexaene-4-carboxamide] was tested. Which IC50 did it give?
Its IC50 is 437 nM.

For `COc1ccc(-n2cnnn2)c(CNC(=O)c2ccc3c(c2)C2OC3c3ccc(-c4ccc(F)cc4F)cc32)c1F` (racemic) [Example 129, (±)-12-(2,4-difluorophenyl)-N-{[2-fluoro-3-methoxy-6-(1H-1,2,3,4-tetrazol-1-yl)phenyl]-methyl}-15-oxatetracyclo [6.6.1.0^2,^7.0^9,1^4]-pentadeca-2,4,6,9,11,13-hexaene-4-carboxamide], which IC50 is on record?
Its IC50 is 234 nM.

How did the IC50 turn out when `Cc1nc(N)cc(C(C)C)c1CNC(=O)c1ccc2c(c1)[C@@H]1O[C@H]2c2ccc(-c3cc[n+]([O-])cc3F)cc21` (single isomer, unassigned) [Example 265] was run?
The IC50 was 91.2 nM.

`NC(=O)c1cccc(CNC(=O)c2ccc3c(c2)[C@@H]2O[C@H]3c3ccc(-c4ccc(F)cc4F)cc32)c1` (single isomer, unassigned) [Example 292] was tested. Which IC50 did it give?
Its IC50 is 100000 nM.

For `Cc1cc(N)nc(C)c1CNC(=O)c1ccc2c(c1)[C@@H]1O[C@H]2c2cc(-c3ccccc3F)ccc21` (single isomer, unassigned) [Example 130], which IC50 is on record?
Its IC50 is 195 nM.

How did the IC50 turn out when `Cc1cc(N)nc(C)c1CNC(=O)c1ccc2c(c1)C1OC2c2cc3c(O)nnc(O)c3cc21` (racemic) [Example 320, (±)-N-[(6-amino-2,4-dimethyl-pyridin-3-yl)methyl]-5,8-dihydroxy-19-oxa-6,7-diazapentacyclo [10.6.1.0^2,^11.0^4,^9.0^13,1^8] nonadeca-2(11),3,5,7,9,13,15,17-octaene-15-carboxamide] was run?
Its IC50 is 10200 nM.

How did the IC50 turn out when `CC(=O)N1C2c3ccc(C(=O)NCc4c(C)cc(N)nc4C)cc3C1c1cc(-c3ccc(F)cc3F)ccc12` (racemic) [Example 209, (±)-15-acetyl-N-[(6-amino-2,4-dimethylpyridin-3-yl)methyl]-12-(2,4-difluorophenyl)-15-azatetracyclo[6.6.1.0^2,^7.0^9,1^4] pentadeca-2,4,6,9,11,13-hexaene-4-carboxamide and (±)-15-acetyl-N-[(6-amino-2,4-dimethylpyridin-3-yl)methyl]-11-(2,4-difluorophenyl)-15-azatetracyclo[6.6.1.0^2,^7.0^9,1^4] pentadeca-2,4,6,9,11,13-hexaene-4-carboxamide] was run?
The IC50 was 3470 nM.

For `N=C(N)c1ccc(NC(=O)c2ccc3c(c2)[C@@H]2O[C@H]3c3ccc(-c4ccc(F)cc4F)cc32)cc1` (single isomer, unassigned) [Example 244], which IC50 is on record?
Its IC50 is 10700 nM.

How did the IC50 turn out when `Cc1cc(N)nc(C)c1CNC(=O)c1ccc2c(c1)C1OC2c2ccc(-c3c(C)cc(F)cc3F)cc21` (racemic) [Example 141, (±)-N-[(6-amino-2,4-dimethlpyridin-3-yl)-methyl]-12-(2,4-difluoro-6-methylphenyl)-15-oxatetracyclo[6.6.1.0^2,^7.0^9,1^4] pentadeca-2,4,6,9,11,13-hexaene-4-carboxamide] was run?
Its IC50 is 105 nM.

`C#Cc1ccccc1-c1ccc2c(c1)C1OC2c2ccc(C(=O)NCc3c(C)cc(N)nc3C)cc21` (racemic) [Example 126, (±)-N-[(6-amino-2,4-dimethylpyridin-3-yl)-methyl]-12-(2-ethynylphenyl)-15-oxatetra-cyclo[6.6.1.0^2,^7.0^9,1^4]pentadeca-2,4,6,9,11,13-hexaene-4-carboxamide] was tested. Which IC50 did it give?
Its IC50 is 6310 nM.

Which IC50 does the source give for `CCc1cc(N)nc(C)c1CNC(=O)c1ccc2c(c1)C1OC2c2ccc(-c3ccc(F)cc3F)cc21` (racemic) [Example 135, (±)-N-[(6-amino-4-ethyl-2-methylpyridin-3-yl)methyl]-12-(2,4-difluorophenyl)-15-oxatetracyclo[6.6.1.0^2,^7.0^9,1^4] pentadeca-2,4,6,9,11,13-hexaene-4-carboxamide] here?
The IC50 was 19.5 nM.

For `O=C(NC1CCCNCC1)c1ccc2c(c1)[C@@H]1O[C@H]2c2ccc(-c3ccc(F)cc3F)cc21` (single isomer, unassigned) [Example 343], which IC50 is on record?
The IC50 was 100000 nM.

With `Cc1cc(N)nc(C)c1CNC(=O)c1ccc2c(c1)C1OC2c2cc(C3CC3)c(C3CC3)cc21` (racemic) [Example 311, (±)-N-[(6-amino-2,4-dimethyl-pyridin-3-yl)-methyl]-11,12-dicyclopropyl-15-oxatetracyclo [6.6.1.0^2,^7.0^9,1^4]pentadeca-2,4,6,9,11,13-hexaene-4-carboxamide] as the compound, how does the IC50 read?
Its IC50 is 32.4 nM.

Which IC50 does the source give for `COc1ccncc1-c1ccc2c(c1)C1OC2c2ccc(C(=O)NCc3c(C)cc(N)nc3C)cc21` (racemic) [Example 167, (±)-N-[(6-amino-2,4-dimethylpyridin-3-yl)-methyl]-12-(4-methoxypyridin-3-yl)-15-oxatetracyclo[6.6.1.0^2,^7.0^9,1^4] pentadeca-2,4,6,9,11,13-hexaene-4-carboxamide] here?
Its IC50 is 115 nM.
